Laboratory results from publication PMC2488398, “Concurrence of Danish Dementia and Cataract: Insights from the Interactions of Dementia Associated Peptides with Eye Lens α-Crystallin” (PLoS ONE, 2008).

Tested on: rat lens
Assay: Lens protein content in peptide-treated rat lenses
Format: cell-based, Wistar rat
Conditions: 10 µM peptide, 96 h
Protocol: Eyes were enucleated from 4 months old Wistar rats, obtained from National Center for Laboratory Animal Services, National Institute of Nutrition, Hyderabad immediately after sacrifice by cervical dislocation. Animal care and protocols were in accordance with and approved by Institutional Animal Ethics Committee. Lenses were dissected from the eyes by anterior approach. Each isolated lens was incubated in 2 ml of modified of TC-199 (Sigma) medium with antibiotics. Osmolarity of the medium was adjusted to 295 milli osmomoles using an osmometer (Micro Osmometer; Model-210, Fiske Associates, Norwood, MA, USA). Lenses were cultured as described previously, [33]. Lenses were incubated at 37°C under 95% air and 5% CO2 in the absence or presence of the various dementia associated peptides dissolved in DMSO for a period of 96 h. All the reagents/chemicals used for lens organ culture were filtered through 0.2 µm Millipore disc filters. Final concentration of a given dementia associated peptides in the culture medium was kept at 10 µM. Medium was changed every 24 h. At the end of incubation, lenses were kept on a grid (12/cm) for assessing the transparency by placing them above a light source.
Lenses were homogenized in 10 vol. of 0.05 M Tris buffer (pH 8.0), containing 0.1 M NaCl and 0.02% sodium azide. The homogenate was centrifuged at 15 000 g for 30 min at 4°C and the resulting supernatant was collected (soluble fraction). The pellet was washed thrice and constituted in the same buffer (insoluble fraction). Protein content in soluble and insoluble fractions was estimated by Lowry's method.

## Aβ (1–42): column label of Table 1; text gives the same value for Aβ-40
15 000 g pellet, Lowry's method, Control 95
  Insoluble protein: 145 mg/g lens
15 000 g supernatant, Lowry's method, Control 421
  Soluble protein: 310 mg/g lens
Lowry's method, Control 518
  Total protein: 464 mg/g lens
In relation to the amount of total protein, Control 81
  % Soluble protein: 67%
